Converted amounts (≈) assume the structure as drawn.
Tests used:
[1] = system: Mycobacterium tuberculosis; assay: Antimycobacterial activity against Mycobacterium tuberculosis H37Rv after 10 days by microbroth dilution method; assay type: functional; conditions: 240 h
[2] = Acute toxicity in mouse administered as single ip dose; assay type: organism-based; conditions: in vivo
Mycolicibacter terrae = assay: Antimycobacterial activity against Mycobacterium terrae after 10 days by microbroth dilution method; assay type: functional; conditions: 240 h
[3] = Acute toxicity in mouse administered as single po dose; assay type: organism-based; conditions: in vivo
Mycobacterium avium = assay: Antimycobacterial activity against Mycobacterium avium after 10 days by microbroth dilution method; assay type: functional; conditions: 240 h

| Structure (SMILES) | MIC [1] | LD50 [2] | MIC (Mycolicibacter terrae) | LD50 [3] | MIC (Mycobacterium avium) |
| --- | --- | --- | --- | --- | --- |
| C(=C\c1cncnc1-c1cccs1)/c1ccc(-c2ccccc2)cc1 | 12.5 µg/mL (≈ 36.7 µM) |  |  |  |  |
| C(=C\c1cncnc1-c1ccco1)/c1ccc(-c2ccccc2)cc1 | 12.5 µg/mL (≈ 38.5 µM) |  |  |  |  |
| C(=C\c1cncnc1-c1cccs1)/c1ccccc1 | 12.5 µg/mL (≈ 47.3 µM) |  |  |  |  |
| NC(=O)c1cnccn1 [PYRAZINAMIDE] | 12.5 µg/mL (≈ 102 µM) | 1680 mg/kg |  |  |  |
| C(=C\c1cncnc1-c1ccc(-c2cccs2)s1)/c1ccccc1 |  |  | 0.7 µg/mL (≈ 2.02 µM) |  |  |
| c1csc(-c2ccc(-c3ccncn3)s2)c1 | 12.5 µg/mL (≈ 51.2 µM) |  |  |  |  |
| NNC(=O)c1ccncc1 [ISONIAZID] | 0.1 µg/mL (≈ 0.729 µM) | 151 mg/kg | 0.1 µg/mL (≈ 0.729 µM) | 133 mg/kg | 0.1 µg/mL (≈ 0.729 µM) |
| C(=C\c1cncnc1-c1ccc(-c2cccs2)s1)/c1ccc(-c2ccccc2)cc1 | 1.5 µg/mL (≈ 3.55 µM) |  | 0.7 µg/mL (≈ 1.66 µM) | 78 mg/kg | 0.7 µg/mL (≈ 1.66 µM) |
| Brc1cncnc1-c1ccco1 | 1.5 µg/mL (≈ 6.67 µM) |  | 0.7 µg/mL (≈ 3.11 µM) | 405 mg/kg | 0.7 µg/mL (≈ 3.11 µM) |
| C(=C\c1cncnc1-c1ccco1)/c1ccccc1 | 6.25 µg/mL (≈ 25.2 µM) |  |  |  |  |
| Brc1cncnc1-c1cccs1 | 0.7 µg/mL (≈ 2.9 µM) |  | 0.3 µg/mL (≈ 1.24 µM) | 315 mg/kg | 0.3 µg/mL (≈ 1.24 µM) |
| Brc1cncnc1-c1ccc(-c2cccs2)s1 |  |  | 0.7 µg/mL (≈ 2.17 µM) |  |  |
| C(=C\c1cncnc1-c1ccc(-c2ccccc2)s1)/c1ccc(-c2ccccc2)cc1 | 12.5 µg/mL (≈ 30 µM) |  |  |  |  |
| c1csc(-c2ccncn2)c1 | 12.5 µg/mL (≈ 77.1 µM) |  |  |  |  |
| c1ccc(-c2ccc(-c3ccncn3)s2)cc1 | 12.5 µg/mL (≈ 52.5 µM) |  |  |  |  |
| Brc1cncnc1-c1ccc(-c2ccccc2)s1 | 6.25 µg/mL (≈ 19.7 µM) |  |  |  |  |
| C(=C\c1cncnc1-c1ccc(-c2ccccc2)s1)/c1ccccc1 | 12.5 µg/mL (≈ 36.7 µM) |  |  |  |  |
